Molecules are shown by their SMILES. Structures can show the parent of a compound that is named as a salt.

For this assay, the target named is T1, Androgen Receptor (Homo sapiens, UniProt P10275, T878A).
T1 construct: the AR gene was modified, using CRISPR/Cas9 editing, so the expressed AR protein included an 11 amino acid HiBiT tag; endogenous in cells; host or cells: clonal LnCaP-derived line, AR gene edited by CRISPR/Cas9
T1 sequence (P10275 whole entry T878A): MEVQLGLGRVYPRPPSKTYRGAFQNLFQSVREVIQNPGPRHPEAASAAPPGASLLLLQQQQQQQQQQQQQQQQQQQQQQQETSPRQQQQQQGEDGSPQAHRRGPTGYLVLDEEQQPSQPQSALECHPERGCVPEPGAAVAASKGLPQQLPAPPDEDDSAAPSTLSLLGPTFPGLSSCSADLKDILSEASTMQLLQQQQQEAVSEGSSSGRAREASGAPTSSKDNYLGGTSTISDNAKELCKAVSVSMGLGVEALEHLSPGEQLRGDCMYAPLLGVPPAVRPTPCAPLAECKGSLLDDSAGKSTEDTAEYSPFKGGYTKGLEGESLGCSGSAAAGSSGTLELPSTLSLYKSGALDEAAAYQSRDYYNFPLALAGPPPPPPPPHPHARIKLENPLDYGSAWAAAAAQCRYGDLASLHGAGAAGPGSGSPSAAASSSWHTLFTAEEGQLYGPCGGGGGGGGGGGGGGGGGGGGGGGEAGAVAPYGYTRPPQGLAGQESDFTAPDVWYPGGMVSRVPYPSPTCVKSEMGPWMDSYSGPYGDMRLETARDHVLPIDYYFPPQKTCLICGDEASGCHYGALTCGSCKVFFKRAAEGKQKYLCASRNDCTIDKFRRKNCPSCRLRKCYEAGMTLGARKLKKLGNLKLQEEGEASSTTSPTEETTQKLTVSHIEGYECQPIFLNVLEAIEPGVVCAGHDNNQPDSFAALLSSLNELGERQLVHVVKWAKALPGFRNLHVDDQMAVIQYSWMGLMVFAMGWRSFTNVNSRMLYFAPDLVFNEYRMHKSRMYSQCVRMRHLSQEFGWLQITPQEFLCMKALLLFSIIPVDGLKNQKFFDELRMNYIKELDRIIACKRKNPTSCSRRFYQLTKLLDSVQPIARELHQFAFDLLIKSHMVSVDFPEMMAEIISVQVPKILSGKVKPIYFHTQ
T1 sequence (Q96SW2 whole entry partner): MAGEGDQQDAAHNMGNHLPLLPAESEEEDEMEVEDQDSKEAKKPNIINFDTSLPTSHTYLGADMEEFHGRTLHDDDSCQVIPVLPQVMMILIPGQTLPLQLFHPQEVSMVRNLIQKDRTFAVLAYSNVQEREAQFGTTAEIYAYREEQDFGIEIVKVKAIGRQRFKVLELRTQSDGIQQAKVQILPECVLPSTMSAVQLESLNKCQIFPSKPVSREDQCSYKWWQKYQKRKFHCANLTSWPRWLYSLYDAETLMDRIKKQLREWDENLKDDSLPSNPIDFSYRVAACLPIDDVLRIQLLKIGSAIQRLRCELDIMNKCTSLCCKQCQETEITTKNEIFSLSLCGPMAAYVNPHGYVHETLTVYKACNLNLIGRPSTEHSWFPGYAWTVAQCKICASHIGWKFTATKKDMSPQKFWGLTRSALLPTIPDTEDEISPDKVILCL
T1 sequence (Q16531 whole entry partner): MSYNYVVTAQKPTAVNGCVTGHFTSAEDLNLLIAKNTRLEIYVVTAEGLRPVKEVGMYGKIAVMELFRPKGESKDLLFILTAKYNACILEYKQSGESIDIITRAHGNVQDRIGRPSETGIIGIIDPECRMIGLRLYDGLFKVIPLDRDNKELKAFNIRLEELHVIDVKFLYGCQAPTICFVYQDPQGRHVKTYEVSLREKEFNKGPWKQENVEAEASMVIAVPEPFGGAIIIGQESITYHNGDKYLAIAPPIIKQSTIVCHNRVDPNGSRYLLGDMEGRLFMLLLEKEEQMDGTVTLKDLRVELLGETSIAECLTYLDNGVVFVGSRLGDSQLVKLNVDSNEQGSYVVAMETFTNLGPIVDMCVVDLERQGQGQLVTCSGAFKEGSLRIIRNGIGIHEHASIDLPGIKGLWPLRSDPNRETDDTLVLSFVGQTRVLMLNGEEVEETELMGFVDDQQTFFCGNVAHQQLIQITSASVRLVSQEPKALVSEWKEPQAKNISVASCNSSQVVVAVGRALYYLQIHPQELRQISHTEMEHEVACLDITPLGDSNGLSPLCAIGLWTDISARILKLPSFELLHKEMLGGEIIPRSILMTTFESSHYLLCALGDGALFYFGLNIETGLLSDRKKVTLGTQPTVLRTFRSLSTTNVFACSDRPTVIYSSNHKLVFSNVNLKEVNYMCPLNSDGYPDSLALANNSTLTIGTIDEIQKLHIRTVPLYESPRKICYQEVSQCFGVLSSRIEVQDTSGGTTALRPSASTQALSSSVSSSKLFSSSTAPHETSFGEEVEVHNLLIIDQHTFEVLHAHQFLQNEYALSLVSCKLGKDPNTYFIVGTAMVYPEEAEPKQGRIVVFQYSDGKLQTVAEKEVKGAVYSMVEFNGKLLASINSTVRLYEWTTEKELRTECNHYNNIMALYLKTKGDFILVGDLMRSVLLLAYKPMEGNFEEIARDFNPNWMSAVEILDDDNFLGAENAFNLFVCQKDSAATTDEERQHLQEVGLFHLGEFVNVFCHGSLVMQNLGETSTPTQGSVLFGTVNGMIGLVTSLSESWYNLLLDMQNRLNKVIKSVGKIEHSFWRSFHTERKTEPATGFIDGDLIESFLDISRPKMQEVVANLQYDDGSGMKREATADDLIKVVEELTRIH
Put plainly: Androgen Receptor Degradation Assay (Nano-Glo HiBiT). Format: cell-based. The settings on record: LNCaP, 18 h, HiBiT-tagged AR in human LnCaP cells, read-out: mean asymptote max. Put shortly:
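LnCaP cells with CRISPR-knocked-in N-terminal HiBiT-tagged AR (10,000/well) treated 18 h at 37 °C with PROTACs over 11 threefold concentrations; lytic HiBiT luminescence normalised to DMSO (0%) and cell-free (100%) controls. Relative DC50 = 4-parameter fit inflection; absolute DC50 = 50% degradation interpolation; Dmax = maximum observed degradation.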
(With HiBiT, luminescence reflects the tagged protein that the partner subunit can reach.)
On to `N#Cc1ccc(O[C@H]2CC[C@H](NC(=O)c3ccc(N4CCC(CN5CCC(n6ccc7c(N8CCC(=O)NC8=O)ncnc76)CC5)CC4)nn3)CC2)cc1Cl` [EAR119, N-((1r,4r)-4-(3-Chloro-4-cyanophenoxy)cyclohexyl)-6-(4-((4-(4-(2,4-dioxotetrahydropyrimidin-1(2H)-yl)-7H-pyrrolo[2,3-d]pyrimidin-7-yl)piperidin-1-yl)methyl)piperidin-1-yl)pyridazine-3-carboxamide], for which the Dmax is no less than 50%.
With `N#Cc1ccc(O[C@H]2CC[C@H](NC(=O)c3cnc(N4CCC(C(=O)N5CCC(n6ccc7c(N8CCC(=O)NC8=O)cccc76)CC5)CC4)nc3)CC2)cc1Cl` [EAR69, N-((1r,4r)-4-(3-Chloro-4-cyanophenoxy)cyclohexyl)-2-(4-(4-(4-(2,4-dioxotetrahydropyrimidin-1(2H)-yl)-1H-indol-1-yl)piperidine-1-carbonyl)piperidin-1-yl)pyrimidine-5-carboxamide] the figure was no less than 50%; with `N#Cc1ccc(O[C@H]2CC[C@H](NC(=O)c3ccc(N4CCC(CN5CC[C@H](n6ccc7c(N8CCC(=O)NC8=O)cccc76)[C@@H](F)C5)CC4)nn3)CC2)cc1Cl` [EAR145, N-((1r,4r)-4-(3-Chloro-4-cyanophenoxy)cyclohexyl)-6-(4-(((3S,4S)-4-(4-(2,4-dioxotetrahydropyrimidin-1(2H)-yl)-1H-indol-1-yl)-3-fluoropiperidin-1-yl)methyl)piperidin-1-yl)pyridazine-3-carboxamide, hydrochloride], no less than 50%; with `CC1(C)[C@H](NC(=O)c2ccc(N3CCC(CN4CCC(n5ncc6c(N7CCC(=O)NC7=O)nccc65)CC4)CC3)nc2)C(C)(C)[C@H]1Oc1cnc(C#N)c(Cl)c1` [EAR257, N-((1r,3r)-3-((5-Chloro-6-cyanopyridin-3-yl)oxy)-2,2,4,4-tetramethylcyclobutyl)-6-(4-((4-(4-(2,4-dioxotetrahydropyrimidin-1(2H)-yl)-1H-pyrazolo[4,3-c]pyridin-1-yl)piperidin-1-yl)methyl)piperidin-1-yl)nicotinamide], no less than 50%.
`N#Cc1ccc(O[C@H]2CC[C@H](NC(=O)c3cnc(N4CCC(CN5CCC(n6ccc7c(N8CCC(=O)NC8=O)cncc76)CC5)CC4)nc3)CC2)cc1C(F)(F)F` [AR17, N-((1r,4r)-4-(4-Cyano-3-(trifluoromethyl)phenoxy)cyclohexyl)-2-(4-((4-(4-(2,4-dioxotetrahydropyrimidin-1(2H)-yl)-1H-pyrrolo[2,3-c]pyridin-1-yl)piperidin-1-yl)methyl)piperidin-1-yl)pyrimidine-5-carboxamide]: the Dmax is no less than 50%.
With `N#Cc1ccc(O[C@H]2CC[C@H](NC(=O)c3ccc(N4CCC5(CC(CN6CCC(n7ncc8c(N9CCC(=O)NC9=O)cccc87)CC6)C5)C4)nn3)CC2)cc1Cl` (stereo partly shown) [EAR233, N-((1r,4r)-4-(3-chloro-4-cyanophenoxy)cyclohexyl)-6-(2-((4-(4-(2,4-dioxotetrahydropyrimidin-1(2H)-yl)-1H-indazol-1-yl)piperidin-1-yl)methyl)-6-azaspiro[3.4]octan-6-yl)pyridazine-3-carboxamide] the figure was no less than 50%; with `N#Cc1ccc(O[C@H]2CC[C@H](NC(=O)c3ccc(N4CCC(CN5CCC(n6ccc7c(N8CCC(=O)NC8=O)nccc76)CC5)CC4)nn3)CC2)cc1C(F)(F)F` [EAR204, N-((1r,4r)-4-(4-Cyano-3-(trifluoromethyl)phenoxy)cyclohexyl)-6-(4-((4-(4-(2,4-dioxotetrahydropyrimidin-1(2H)-yl)-1H-pyrrolo[3,2-c]pyridin-1-yl)piperidin-1-yl)methyl)piperidin-1-yl)pyridazine-3-carboxamide], no less than 50%; with `N#Cc1ccc(O[C@H]2CC[C@H](NC(=O)c3ccc(N4CCC(CN5CCC(n6ccc7c(N8CCC(=O)NC8=O)cccc76)CC5)CC4)nc3)CC2)cc1Cl` [EAR13, N-((1r,4r)-4-(3-Chloro-4-cyanophenoxy)cyclohexyl)-6-(4-((4-(4-(2,4-dioxotetrahydropyrimidin-1(2H)-yl)-1H-indol-1-yl)piperidin-1-yl)methyl)piperidin-1-yl)nicotinamide], no less than 50%.
In the case of `CC(C)n1ccc2c(N3CCC(=O)NC3=O)cc(C(=O)N(C)CC3CCN(CCCCOc4ccc(C(=O)N[C@H]5CC[C@H](Oc6ccc(C#N)c(Cl)c6)CC5)nc4)CC3)cc21` [EAR65, N-((1-(4-((6-(((1r,4r)-4-(3-Chloro-4-cyanophenoxy)cyclohexyl)carbamoyl)pyridin-3-yl)oxy)butyl)piperidin-4-yl)methyl)-4-(2,4-dioxotetrahydropyrimidin-1(2H)-yl)-1-isopropyl-N-methyl-1H-indole-6-carboxamide], the Dmax was no less than 50%.
With `N#Cc1ccc(O[C@H]2CC[C@H](NC(=O)c3ccc(N4CCCC(N5CCC(n6ccc7c(N8CCC(=O)NC8=O)cccc76)CC5)C4)cc3)CC2)cc1Cl` (stereo partly shown) [EAR28, N-((1r,4r)-4-(3-Chloro-4-cyanophenoxy)cyclohexyl)-4-(4-(4-(2,4-dioxotetrahydropyrimidin-1(2H)-yl)-1H-indol-1-yl)-[1,3′-bipiperidin]-1′-yl)benzamide] the figure was no less than 50%; with `N#Cc1ccc(O[C@H]2CC[C@H](NC(=O)c3ccc(N4CC5(CCC(CN6CCC(n7ncc8c(N9CCC(=O)NC9=O)cccc87)CC6)CO5)C4)nn3)CC2)cc1Cl` (stereo partly shown) [EAR218, N-((1r,4r)-4-(3-Chloro-4-cyanophenoxy)cyclohexyl)-6-(7-((4-(4-(2,4-dioxotetrahydropyrimidin-1(2H)-yl)-1H-indazol-1-yl)piperidin-1-yl)methyl)-5-oxa-2-azaspiro[3.5]nonan-2-yl)pyridazine-3-carboxamide], no less than 50%.
As for `CN(CCCN1CCC(n2ncc3c(N4CCC(=O)NC4=O)cccc32)CC1)c1ccc(C(=O)N[C@H]2CC[C@H](Oc3ccc(C#N)c(Cl)c3)CC2)nn1` [EAR151, N-((1r,4r)-4-(3-Chloro-4-cyanophenoxy)cyclohexyl)-6-((3-(4-(4-(2,4-dioxotetrahydropyrimidin-1(2H)-yl)-1H-indazol-1-yl)piperidin-1-yl)propyl)(methyl)amino)pyridazine-3-carboxamide, formic acid salt], the Dmax is no less than 50%.
As to `N#Cc1ccc(O[C@H]2CC[C@H](NC(=O)c3ccc(N4CC(CN5CCC(n6ncc7c(N8CCC(=O)NC8=O)cccc76)CC5)C4)nn3)CC2)cc1Cl` [EAR154, N-((1r,4r)-4-(3-Chloro-4-cyanophenoxy)cyclohexyl)-6-(3-((4-(4-(2,4-dioxotetrahydropyrimidin-1(2H)-yl)-1H-indazol-1-yl)piperidin-1-yl)methyl)azetidin-1-yl)pyridazine-3-carboxamide, formic acid salt], the Dmax is no less than 50%.
Take `N#Cc1ccc(O[C@H]2CC[C@H](NC(=O)c3ccc(N4CCC(CN5CCC(n6ncc7c(N8CCC(=O)NC8=O)cccc76)CC5)CC4)nn3)CC2)cc1Cl` [EAR43, N-((1r,4r)-4-(3-Chloro-4-cyanophenoxy)cyclohexyl)-6-(4-((4-(4-(2,4-dioxotetrahydropyrimidin-1(2H)-yl)-1H-indazol-1-yl)piperidin-1-yl)methyl)piperidin-1-yl)pyridazine-3-carboxamide]: the Dmax was no less than 50%.
Regarding `N#Cc1ccc(O[C@H]2CC[C@H](NC(=O)c3ccc(N4CCOC(CCN5CCC(n6ncc7c(N8CCC(=O)NC8=O)cccc76)CC5)C4)nn3)CC2)cc1Cl` (stereo partly shown) [EAR243, N-((1r,4r)-4-(3-chloro-4-cyanophenoxy)cyclohexyl)-6-(2-(2-(4-(4-(2,4-dioxotetrahydropyrimidin-1(2H)-yl)-1H-indazol-1-yl)piperidin-1-yl)ethyl)morpholino)pyridazine-3-carboxamide], the Dmax is no less than 50%.
`CC1(C)C(=O)N(c2ccc(C#N)c(C(F)(F)F)c2)C(=S)N1c1ccc(N2CCC(N3CCC(n4ccc5c(N6CCC(=O)NC6=O)cncc54)CC3)CC2)cc1` [EAR96, 4-(3-(4-(4-(4-(2,4-Dioxotetrahydropyrimidin-1(2H)-yl)-1H-pyrrolo[2,3-c]pyridin-1-yl)-[1,4′-bipiperidin]-1′-yl)phenyl)-4,4-dimethyl-5-oxo-2-thioxoimidazolidin-1-yl)-2-(trifluoromethyl)benzonitrile formate]: the Dmax is no less than 50%.
Consider `N#Cc1ccc(O[C@H]2CC[C@H](NC(=O)c3ccc(N4CCC(CN5CC[C@@H](n6ccc7c(N8CCC(=O)NC8=O)cccc76)[C@@H](F)C5)CC4)nn3)CC2)cc1Cl` [EAR155, N-((1r,4r)-4-(3-Chloro-4-cyanophenoxy)cyclohexyl)-6-(4-(((3S,4R)-4-(4-(2,4-dioxotetrahydropyrimidin-1(2H)-yl)-1H-indol-1-yl)-3-fluoropiperidin-1-yl)methyl)piperidin-1-yl)pyridazine-3-carboxamide, hydrochloride], for which the Dmax was no less than 50%.
`N#Cc1ccc(O[C@H]2CC[C@H](NC(=O)c3ccc(N4CC5CCC(C4)C5CN4CCC(n5ncc6c(N7CCC(=O)NC7=O)cccc65)CC4)nn3)CC2)cc1Cl` (stereo partly shown) [EAR226, N-((1r,4r)-4-(3-chloro-4-cyanophenoxy)cyclohexyl)-6-(8-((4-(4-(2,4-dioxotetrahydropyrimidin-1(2H)-yl)-1H-indazol-1-yl)piperidin-1-yl)methyl)-3-azabicyclo[3.2.1]octan-3-yl)pyridazine-3-carboxamide]: the Dmax was no less than 50%.
To `CC(C)n1ccc2c(N3CCC(=O)NC3=O)cc(C(=O)N3CCN(CC4CCN(c5ccc(C(=O)N[C@H]6CC[C@H](Oc7ccc(C#N)c(Cl)c7)CC6)cn5)CC4)CC3)cc21` [EAR80, N-((1r,4r)-4-(3-Chloro-4-cyanophenoxy)cyclohexyl)-6-(4-((4-(4-(2,4-dioxotetrahydropyrimidin-1(2H)-yl)-1-isopropyl-1H-indole-6-carbonyl)piperazin-1-yl)methyl)piperidin-1-yl)nicotinamide] belongs no less than 50%.
